Data as given in the Kinase Knowledgebase extract (Sharma et al. 2016).
Values joined by “and” are separate entries in the source; they are usually repeats but may differ in a detail not shown here. Equal values may be shown once.

Key:
MAPK14 (human) = MAPK14 (human) (UniProt Q16539); assay: LPS-induced TNF-alpha Release Inhibition (Human Blood)
MAPK14 = MAPK14 (UniProt Q16539); assay: p38-alpha Kinase Inhibition
MAPK14 (rat) [1] = assay: Secondary Paw Swelling Inhibition (Arthritis Rat)
MAPK14 (rat) [2] = test system: MAPK14 (rat)

MAPK14 (human), sequence (Q16539 whole entry, looked up): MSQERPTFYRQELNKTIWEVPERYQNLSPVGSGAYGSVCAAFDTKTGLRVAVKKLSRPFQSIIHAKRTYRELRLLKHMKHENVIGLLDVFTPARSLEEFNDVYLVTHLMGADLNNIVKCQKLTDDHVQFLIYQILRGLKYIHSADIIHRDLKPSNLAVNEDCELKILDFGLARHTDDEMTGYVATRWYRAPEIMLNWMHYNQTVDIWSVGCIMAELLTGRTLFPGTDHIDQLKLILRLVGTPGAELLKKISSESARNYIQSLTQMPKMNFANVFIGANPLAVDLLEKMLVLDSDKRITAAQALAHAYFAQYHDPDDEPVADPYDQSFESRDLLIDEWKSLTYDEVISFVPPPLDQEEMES
MAPK14, sequence (Q16539 whole entry, looked up): as above

IC50 (MAPK14 (human)) [nM]	Structure (SMILES)	further results
24000	C[C@H](Nc1nccc(-c2nc(C3CCNCC3)n(C)c2-c2cccc(C(F)(F)F)c2)n1)c1ccccc1	–
0.4	C[C@@H](Nc1nccc(-c2[nH]c(-c3ccccc3)nc2-c2cccc(C(F)(F)F)c2)n1)c1ccccc1	IC50 (MAPK14): 0.97 nM
6	C[C@H](Nc1nccc(-c2[nH]c(-c3ccccc3)nc2-c2cccc(C(F)(F)F)c2)n1)c1ccccc1	IC50 (MAPK14): 0.75 nM
175	Fc1ccc(-c2nc(C3CCNCC3)[nH]c2-c2ccncc2)cc1	–
190	Nc1nccc(-c2[nH]c(C3CCNCC3)nc2-c2cccc(C(F)(F)F)c2)n1	–
290	COc1ccc(CNc2nccc(-c3[nH]c(C4CCNCC4)nc3-c3cccc(C(F)(F)F)c3)n2)cc1	–

Further lines, the molecule ahead of its results:

Structure (SMILES)	IC50 (MAPK14 (human)) [nM]	further results
Fc1ccc(-c2nc(C3CCCNC3)[nH]c2-c2ccncc2)cc1 (stereo not given)	585	–
c1ccc(-c2nc(-c3ccccc3)c(-c3ccncn3)[nH]2)cc1	> 100000	–
CNc1nccc(-c2[nH]c(-c3ccccc3)nc2-c2ccccc2)n1	> 100000	–
COc1ccc2c(c1)c(CC(=O)O)c(C)n2C(=O)c1ccc(Cl)cc1	–	score (MAPK14 (rat) [1]): 5.5 and 4.9
C[C@H](Nc1cc(-c2c(-c3cccc(C(F)(F)F)c3)nc(C3CCNCC3)n2C)ccn1)c1ccccc1	–	ED50 (MAPK14 (rat) [1]): 8.2 mg/kg/day; inhibition (MAPK14 (rat) [1]; dose or concentration not given here): 76%; ID50 (MAPK14 (rat) [2]): 17.5 mg/kg/day
FC(F)(F)c1cccc(-c2nc(-c3ccccc3)[nH]c2-c2ccncc2)c1	> 100000	–
COc1ccc(CNc2nccc(-c3[nH]c(-c4ccccc4)nc3-c3ccccc3)n2)cc1	> 100000	–
Fc1ccc(-c2nc(C3CCCCC3)[nH]c2-c2ccncc2)cc1	34	–
Nc1nccc(-c2[nH]c(-c3ccccc3)nc2-c2ccccc2)n1	> 100000	–
Fc1ccc(-c2nc[nH]c2-c2ccncc2)cc1	> 10000	–
